Source: US20240041042A1, “1-(PYRIDYL)-5-AZINYLPYRAZOLE DERIVATIVES, AND THEIR USE FOR CONTROL OF UNDESIRED PLANT GROWTH” (Bayer Aktiengesellschaft, priority 2020, published 2024)
Read-outs that look alike come from different tables or passages of the source.

Tests used:
Assay type in all cases: in vivo
[1] = system: Abutilon theophrasti (ABUTH); assay: Pre-emergence herbicidal action against ABUTH; conditions: Dosage column 320 g/ha (title prints 3200 g/ha); scored visually after about 3 weeks; 100% = plants have died
Procedure, shortened: (§1)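 Application rates ran to 320 g/ha or lower, with several dosages tested on the same weeds. The compound, as wettable powder or emulsion concentrate, is sprayed pre-emergence onto soil over sown seeds; greenhouse growth follows, and effect is rated visually after roughly 3 weeks.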

[2] = system: Alopecurus myosuroides (ALOMY); assay: Pre-emergence herbicidal action against ALOMY; conditions: scored visually after about 3 weeks, 100% = plants have died
Procedure, shortened: as §1

[3] = system: Amaranthus retroflexus (AMARE); assay: Pre-emergence herbicidal action against AMARE; conditions: visual scoring after about 3 weeks vs untreated controls
Procedure, shortened: as §1

Avena fatua (AVEFA) [4] = assay: Pre-emergence herbicidal action against AVEFA; conditions: visual scoring after about 3 weeks vs untreated controls
Procedure, shortened: as §1

[5] = system: Echinochloa crus-galli (ECHCG); assay: Pre-emergence herbicidal action against ECHCG
Procedure, shortened: as §1

Lolium rigidum (LOLRI) [6] = assay: Pre-emergence herbicidal action against LOLRI
Procedure, shortened: as §1

[7] = system: Matricaria inodora (MATIN); assay: Pre-emergence herbicidal action against MATIN
Procedure, shortened: as §1

[8] = system: Pharbitis purpurea (PHBPU); assay: Pre-emergence herbicidal action against PHBPU
Procedure, shortened: as §1

[9] = system: Polygonum convolvulus (POLCO); assay: Pre-emergence herbicidal action against POLCO
Procedure, shortened: as §1

Setaria viridis (SETVI) [10] = assay: Pre-emergence herbicidal action against SETVI
Procedure, shortened: as §1

[11] = system: Verconica persica (VERPE); assay: Pre-emergence herbicidal action against VERPE
Procedure, shortened: as §1

Viola tricolor (VIOTR) [12] = assay: Pre-emergence herbicidal action against VIOTR
Procedure, shortened: as §1

[13] = system: Abutilon theophrasti (ABUTH); assay: Post-emergence herbicidal action against ABUTH; conditions: visual rating about 3 weeks after treatment vs untreated controls (100% = plants have died, 0% = like control plants)
Procedure, shortened: (§2)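 Rates were 320 g/ha or below, applied as aqueous WP/EC spray with 0.5% additive (600 l/ha) onto one-leaf-stage plants. About 3 weeks later in the greenhouse, damage was scored visually against untreated plants on a 0–100% scale, where 100% means plants died.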

[14] = system: Alopecurus myosuroides (ALOMY); assay: Post-emergence herbicidal action against ALOMY; conditions: visual rating about 3 weeks after treatment vs untreated controls (100% = plants have died, 0% = like control plants)
Procedure, shortened: as §2

[15] = system: Amaranthus retroflexus (AMARE); assay: Post-emergence herbicidal action against AMARE
Procedure, shortened: as §2

Avena fatua (AVEFA) [16] = assay: Post-emergence herbicidal action against AVEFA; conditions: visual rating about 3 weeks after treatment
Procedure, shortened: as §2

[17] = system: Echinochloa crus-galli (ECHCG); assay: Post-emergence herbicidal action against ECHCG
Procedure, shortened: as §2

Lolium rigidum (LOLRI) [18] = assay: Post-emergence herbicidal action against LOLRI
Procedure, shortened: as §2

[19] = system: Matricaria inodora (MATIN); assay: Post-emergence herbicidal action against MATIN
Procedure, shortened: as §2

[20] = system: Pharbitis purpurea (PHBPU); assay: Post-emergence herbicidal action against PHBPU
Procedure, shortened: as §2

[21] = system: Polygonum convolvulus (POLCO); assay: Post-emergence herbicidal action against POLCO
Procedure, shortened: as §2

Setaria viridis (SETVI) [22] = assay: Post-emergence herbicidal action against SETVI
Procedure, shortened: as §2

[23] = system: Verconica persica (VERPE); assay: Post-emergence herbicidal action against VERPE
Procedure, shortened: as §2

Oryza sativa (ORYSA) = conditions: crop plant compatibility
Procedure, shortened: (§3)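 Effects were read visually as % versus untreated controls (0% = no effect, 100% = death) about 3 weeks post-treatment. Application was a post-emergence spray at the one-leaf stage of WP/EC formulations with 0.5% additive at 600 l/ha. Different dosages are denoted a, b and c.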

Zea mays (ZEAMX) = conditions: 20 g/ha, ZEAMX, effect in comparison to untreated controls
Procedure, shortened: as §3

Viola tricolor (VIOTR) [24] = assay: Post-emergence herbicidal action against VIOTR
Procedure, shortened: as §2

[25] = 80 g/ha, visual rating about 3 weeks after treatment vs untreated controls (100% = plants have died, 0% = like control plants)

COC(=O)[C@H](C)COC(=O)COc1nn(-c2ccccn2)c(-c2ccc(F)nc2)c1Br [Example I-76]
Pre-emergence action against ABUTH [1]: 80% | Pre-emergence action against ALOMY ([2]; 80 g/ha): 90% | Pre-emergence action against ALOMY ([2]; 320 g/ha): 100% | Pre-emergence action against AMARE in % ([3]; 80 g/ha): 90% | Pre-emergence action against AMARE in % ([3]; 320 g/ha): 100% | Pre-emergence action against AVEFA in % (Avena fatua (AVEFA) [4]; 320 g/ha): 90% | Pre-emergence action against ECHCG in % ([5]; dosage 320 g/ha): 90% | Pre-emergence action against LOLRI in % (Lolium rigidum (LOLRI) [6]; dosage 80 g/ha): 90% | Pre-emergence action against LOLRI in % (Lolium rigidum (LOLRI) [6]; dosage 320 g/ha): 100% | Pre-emergence action against MATIN in % ([7]; dosage 80 g/ha): 90% | Pre-emergence action against MATIN in % ([7]; dosage 320 g/ha): 90% | Pre-emergence action against PHBPU in % ([8]; dosage 320 g/ha): 90% | Pre-emergence action against POLCO in % ([9]; dosage 80 g/ha): 80% | Pre-emergence action against POLCO in % ([9]; dosage 320 g/ha): 90% | Pre-emergence action against SETVI in % (Setaria viridis (SETVI) [10]; dosage 80 g/ha): 80% | Pre-emergence action against SETVI in % (Setaria viridis (SETVI) [10]; dosage 320 g/ha): 100% | Pre-emergence action against VERPE in % ([11]; dosage 80 g/ha): 100% | Pre-emergence action against VERPE in % ([11]; dosage 320 g/ha): 100% | Pre-emergence action against VIOTR in % (Viola tricolor (VIOTR) [12]; 320 g/ha, Viola tricolor): 100% | Pre-emergence action against VIOTR in % (Viola tricolor (VIOTR) [12]; dosage 80 g/ha): 100% | Post-emergence action against ABUTH in % ([13]; 80 g/ha): 90% | Post-emergence action against ALOMY in % ([14]; 80 g/ha): 100% | Post-emergence action against AMARE in % [15, 25]: 80% | Post-emergence action against AVEFA in % (Avena fatua (AVEFA) [16]; 80 g/ha): 90% | Post-emergence action against ECHCG in % ([17]; dosage 80 g/ha): 90% | Post-emergence action against LOLRI in % (Lolium rigidum (LOLRI) [18]; dosage 80 g/ha): 80% | Post-emergence action against MATIN in % ([19]; dosage 80 g/ha): 80% | Post-emergence action against PHBPU in % ([20]; dosage 80 g/ha): 90% | Post-emergence action against POLCO in % ([21]; dosage 80 g/ha): 80% | Post-emergence action against SETVI in % (Setaria viridis (SETVI) [22]; dosage 80 g/ha): 90% | Post-emergence action against VERPE in % ([23]; dosage 80 g/ha): 80% | Post-emergence action against ORYSA in % (Oryza sativa (ORYSA); 20 g/ha, effect vs untreated controls): 0% | Post-emergence action against ORYSA in % (Oryza sativa (ORYSA); 80 g/ha, effect in comparison to untreated controls): 0% | Post-emergence action against ZEAMX in % (crop plant compatibility) (Zea mays (ZEAMX)): 20%

C[C@@H](Oc1nn(-c2ncccc2F)c(-c2ccc(F)nc2)c1C1CC1)C(=O)O [Example I-342]
Pre-emergence action against ABUTH [1]: 90% | Pre-emergence action against ALOMY ([2]; 80 g/ha): 100% | Pre-emergence action against ALOMY ([2]; 320 g/ha): 100% | Pre-emergence action against AMARE in % ([3]; 80 g/ha): 100% | Pre-emergence action against AMARE in % ([3]; 320 g/ha): 100% | Pre-emergence action against AVEFA in % (Avena fatua (AVEFA) [4]; 80 g/ha): 90% | Pre-emergence action against AVEFA in % (Avena fatua (AVEFA) [4]; 320 g/ha): 100% | Pre-emergence action against ECHCG in % ([5]; dosage 80 g/ha): 100% | Pre-emergence action against ECHCG in % ([5]; dosage 320 g/ha): 100% | Pre-emergence action against LOLRI in % (Lolium rigidum (LOLRI) [6]; dosage 80 g/ha): 100% | Pre-emergence action against LOLRI in % (Lolium rigidum (LOLRI) [6]; dosage 320 g/ha): 100% | Pre-emergence action against MATIN in % ([7]; dosage 80 g/ha): 100% | Pre-emergence action against MATIN in % ([7]; dosage 320 g/ha): 100% | Pre-emergence action against PHBPU in % ([8]; dosage 80 g/ha): 80% | Pre-emergence action against PHBPU in % ([8]; dosage 320 g/ha): 90% | Pre-emergence action against POLCO in % ([9]; dosage 80 g/ha): 90% | Pre-emergence action against POLCO in % ([9]; dosage 320 g/ha): 100% | Pre-emergence action against SETVI in % (Setaria viridis (SETVI) [10]; dosage 80 g/ha): 90% | Pre-emergence action against SETVI in % (Setaria viridis (SETVI) [10]; dosage 320 g/ha): 100% | Pre-emergence action against VERPE in % ([11]; dosage 80 g/ha): 90% | Pre-emergence action against VERPE in % ([11]; dosage 320 g/ha): 100% | Pre-emergence action against VIOTR in % (Viola tricolor (VIOTR) [12]; 320 g/ha, Viola tricolor): 100% | Pre-emergence action against VIOTR in % (Viola tricolor (VIOTR) [12]; dosage 80 g/ha): 100% | Post-emergence action against ABUTH in % ([13]; 80 g/ha): 80% | Post-emergence action against ABUTH in % ([13]; 320 g/ha): 90% | Post-emergence action against ALOMY in % ([14]; 80 g/ha): 100% | Post-emergence action against ALOMY in % ([14]; 320 g/ha): 100% | Post-emergence action against AMARE in % [15, 25]: 90% | Post-emergence action against AMARE in % ([15]; 320 g/ha, visual rating about 3 weeks after treatment): 90% | Post-emergence action against AVEFA in % (Avena fatua (AVEFA) [16]; 80 g/ha): 90% | Post-emergence action against AVEFA in % (Avena fatua (AVEFA) [16]; 320 g/ha): 100% | Post-emergence action against ECHCG in % ([17]; dosage 80 g/ha): 90% | Post-emergence action against ECHCG in % ([17]; dosage 320 g/ha): 90% | Post-emergence action against LOLRI in % (Lolium rigidum (LOLRI) [18]; dosage 80 g/ha): 90% | Post-emergence action against LOLRI in % (Lolium rigidum (LOLRI) [18]; dosage 320 g/ha): 90% | Post-emergence action against MATIN in % ([19]; dosage 320 g/ha): 100% | Post-emergence action against PHBPU in % ([20]; dosage 80 g/ha): 80% | Post-emergence action against PHBPU in % ([20]; dosage 320 g/ha): 90% | Post-emergence action against POLCO in % ([21]; dosage 80 g/ha): 80% | Post-emergence action against POLCO in % ([21]; dosage 320 g/ha): 90% | Post-emergence action against SETVI in % (Setaria viridis (SETVI) [22]; dosage 80 g/ha): 90% | Post-emergence action against SETVI in % (Setaria viridis (SETVI) [22]; dosage 320 g/ha): 90% | Post-emergence action against VERPE in % ([23]; 320 g/ha, VERPE): 90% | Post-emergence action against VERPE in % ([23]; dosage 80 g/ha): 90% | Post-emergence action against VIOTR in % (Viola tricolor (VIOTR) [24]; 80 g/ha): 90% | Post-emergence action against VIOTR in % (Viola tricolor (VIOTR) [24]; 320 g/ha): 90%
